Where two headings read alike, the source gives them in different places.

Data set [1] relates to number of stretchings (anti-writhing). In words: Analgesic activity test (anti-writhing method by Whittle). In kind it is in vivo, male ICR-mice. Conditions: for ED50: Mus musculus, 1 h, read-out: ED50 Oral administration; for analgesic activity / analgesic action: conclusion in words from Table 3. As for the experimental part: After the lapse of 60 minutes, the number of stretchings in the course of 10 minutes was measured as an index to a algesic sense.
On the technique in general: An intraperitoneal irritant provokes the stretching counted in writhing tests.

The nature of data set [2]: in vivo. As to conditions: mouse.
Data set [3] in a line: in vivo. On the set-up: species or system male SD-rats. As to conditions: rat, po. As for the experimental part: A solution of a drug was administered through the mouths of a group of 8 mature male SD-rats (weight 130±20 g) performing a fast for 24 hours. […] Capacity which causes 50% bleeding (UD50) was calculated according to the Ritchfield and Wilcoxon method (J. Pahrmacol., 69, 99, 1949) with bleeding more than 1 mm in diameter as positivity.

For data set [4], the system named is carrageenan induced hind-paw edema. In words: Anti-inflammatory activity test (carrageenan induced hind-paw edema method, Winter). In kind it is in vivo, male rats. Conditions: for A rate of inhibition: 100 mg/kg p.o., 1% carrageenan one hour after dosing, edema measured 3 hours and 5 hours thereafter, significance (p.v.) 0.01; for edema inhibition effect / anti-inflammatory action: conclusion in words from Table 2. Here is the method:
The volume of legs was measured before a solution of a drug was administered to a group of 8 mature male rats (weight 170±20 g) and 0.1 ml /rat of 1% carrageenan physiological saline solution was injected subcutaneously into the sole of hind of leg of rats one hour after the oral administration and edema thereby caused was measured 3 hours and 5 hours thereafter. In this way, a rate of edema formation and a rate of inhibition were calculated.

Setting [5] is: oral, stretchings counted in 10 minutes, 60 minutes after dosing.
Where [6] appears, read: ip, read-out: LD50 Abdominal administration.
The mark [7] stands for this setting: oral, single dose, fasted mice, mortality up to 72 hours, read-out: LD50 Oral administration.

As to `COc1ccc2c(c1)c(CC(=O)OC(C)C(C)O)c(C)n2C(=O)C=Cc1ccccc1` (stereo not shown) [Compound 2, 0-(3-hydroxy-2-buthanyl)-cinnamoyl-5-methoxy-2-methyl-3-indoleacetate], the ED50 in data set [1] (setting [5]) worked out at 31 mg/kg. Besides, the “analgesic activity / analgesic action” value in data set [1] is “analgesic activity equal to cinmetacin”. Besides, the results for the LD50 at 72 h in data set [2] (setting [6]) and in data set [2] (setting [7]) were 570 mg/kg and 4200 mg/kg, respectively. The TD50 at 4 h in data set [3] came out at 175 mg/kg. Besides, the “A rate of inhibition” value in data set [4] is given as 52%. The “edema inhibition effect / anti-inflammatory action” value in data set [4] is recorded as “almost similar to the widely known cinmetacin”.
For the molecule `CC1=C(CC(=O)O)c2cc(F)ccc2/C1=C\c1ccc([S+](C)[O-])cc1` (stereo not shown) [Sulindac, reference compound], in data set [1] (po), the ED50 stood at 60 mg/kg. Also, the LD50 at 72 h in data set [2] (ip, into the abdominal cavity, single dose, fasted mice, mortality up to 72 hours, read-out: LD50 Abdominal administration) came to 235 mg/kg; in data set [2] (setting [7]), 980 mg/kg. Further, the TD50 at 4 h in data set [3] turned out to be 14 mg/kg.
For `COc1ccc2c(c1)c(CC(=O)OCC=CCO)c(C)n2C(=O)C=Cc1ccccc1` [Compound 1, 0-(4-hydroxy-2-butene)-N-cinnamoyl-5-methoxy-2-methyl-3-indoleacetate], the ED50 in data set [1] (setting [5]) is 70 mg/kg. For the same molecule, the “analgesic activity / analgesic action” value in data set [1] is listed as “significant analgesic action”. For the same molecule, the LD50 at 72 h in data set [2] (setting [6]) was determined as 520 mg/kg. In data set [2] (setting [7]), the LD50 at 72 h stood at 2000 mg/kg. Also, in data set [3], the TD50 at 4 h was 100 mg/kg. Also, in data set [4], the “A rate of inhibition” value is recorded as 57% and the “edema inhibition effect / anti-inflammatory action” value is given as “almost similar to the widely known cinmetacin”.
`COc1ccc2c(c1)c(CC(=O)OCC1CCCCO1)c(C)n2C(=O)C=Cc1ccccc1` (stereo not shown) [Compound 3, 0-(2-tetrahydropyranilmethyl)-N-cinnamoyl-5-methoxy-2methyl-3-indoleacetate]: the ED50 in data set [1] (setting [5]) worked out at 95 mg/kg. In addition, in data set [1], the “analgesic activity / analgesic action” value is given as “significant analgesic action”. Also, the LD50 at 72 h in data set [2] (setting [6]) was determined as 1150 mg/kg; in data set [2] (setting [7]) it was 6000 mg/kg. Moreover, the TD50 at 4 h in data set [3] was 230 mg/kg. Moreover, the “A rate of inhibition” value in data set [4] is 43%. Besides, in data set [4], the “edema inhibition effect / anti-inflammatory action” value is “significant anti-inflammatory action”.
In the case of `COc1ccc2c(c1)c(CC(=O)O)c(C)n2C(=O)C=Cc1ccccc1` [Cinmetacin, N-cinnamoyl-2-methyl-5-methoxy-3-indoleacetic acid, reference compound], the ED50 in data set [1] (po) was 36 mg/kg. For the same molecule, the TD50 at 4 h in data set [3] was 18 mg/kg. Further, the “A rate of inhibition” value in data set [4] was 65%.

For the origin of these results see patent publication US5747521A (priority 1992, dated 1998).
